# “And” between values parts separate entries of the source, which are not always exact repeats. Equal values may be shown once. Read-outs that look alike come from different tables or passages of the source.
# How the values were obtained:
# Format in all cases: in vivo
# [1] = test system: Tetranychus urticae (spider mites - adult); experiment: insecticidal mortality test, contact, French bean leaf; settings: for mortality at 100 ppm: Tetranychus urticae, 72 h, read-out: grading of mortality, Tua, 100 ppm, 3 days
# Method: (§1) The activity of the Product was determined using a variety of insect pests. The Product was used in the form of liquid preparations containing 500, 250 or 100 parts per million (ppm) by weight of the Product. The preparations were made by dissolving the Product in acetone and diluting the solutions with water containing 0.01% by weight of a wetting agent sold under the trade name "LlSSAPOL" NX until the liquid preparations contained the required concentration of the Product. "Lissapol" is a Registered Trade Mark.
# (§2) The test procedure adopted with regard to each pest was basically the same and comprised supporting a number of the pests on a medium which was usually a host plant or a foodstuff on which the pests feed, and treating either or both the pests and the medium with the preparations. The mortality of the pests was then assessed at periods usually varying from one to three days after the treatment.
# (§3) The results of the tests are given in Table III for each of the Products, at the rate in parts per million given in the second column as a grading of mortality designated as A, B or C wherein A indicates 80-100% mortality, B indicates 50-79% mortality and C indicates less than 50% mortality.
# (§4) In Table 111 the pest organism used is designated by a letter code and the pests species, the support medium or food, and the type and duration of test is given in Table II.
# Myzus persicae (aphids) = experiment: insecticidal mortality test, contact, Chinese Cabbage leaf; settings: 72 h, read-out: grading of mortality, MP
# Method: as §1, §2, §3, §4
# [2] = test system: Nephotettix cincticeps (green leaf hopper - nymphs); experiment: insecticidal mortality test, contact, rice plant; settings: read-out: grading of mortality, NC
# Method: as §1, §2, §3, §4
# [3] = test system: Heliothis virescens (tobacco budworm - larvae); experiment: insecticidal mortality test, residual, cotton leaf; settings: read-out: grading of mortality, HV
# Method: as §1, §2, §3, §4
# [4] = test system: Spodoptera exigua (lesser army worm - larvae); experiment: insecticidal mortality test, residual, cotton leaf; settings: read-out: grading of mortality, SP
# Method: as §1, §2, §3, §4
# [5] = test system: Diabrotica balteata (rootworm larvae); experiment: insecticidal mortality test, residual, filter paper/maize seed; settings: read-out: grading of mortality, DB
# Method: as §1, §2, §3, §4
# [6] = test system: Blattella germanica (cockroach nymphs); experiment: insecticidal mortality test, residual, plastic pot; settings: 72 h, read-out: grading of mortality, BG
# Method: as §1, §2, §3, §4
# [7] = test system: Musca domestica (houseflies - adults); experiment: insecticidal mortality test, contact, cotton wool/sugar; settings: read-out: grading of mortality, MD
# Method: as §1, §2, §3, §4
# [8] = test system: Blattella germanica (adult males); experiment: Blattella germanica knockdown test; settings: for KT₅₀: time taken to knockdown 50% of test insects; for KT₅₀ / KT₉₀: Tetramethrin: mean of 3 assessments; for KT₉₀: time taken to knockdown 90% of test insects; for pest or weed control at 250 ppm: topical, Tetramethrin: mean of 27 observations
# Method: The test compound was dissolved in acetone (2 cm³) and the solution diluted to a concentration of 250 ppm with kerosene. 1 cm³ Of this preparation was sprayed onto 10 Blattella germanica (adult males) held in a netted plastic pot in a Burkhard potter Tower. Assessment of knockdown was performed at intervals of 5 minutes up to a total of 20 minutes. On removal from the Burkhard Potter Tower, the insects were held at 25°C and 65% relative humidity for 48 hours, and an assessment of mortality performed. Each test was repeated.
# In some tests, additional knockdown assessment was performed at intervals of 1, 2, 3 and 4 minutes, and KT₅₀ and KT₉₀ values determined (the time taken, in minutes, to knockdown 50% and 90% respectively of test insects).
# [9] = 48 h, 100 ppm, contact, rice plant, test duration of 2 days (footnote +)
# [10] = 48 h, 100 ppm, residual, cotton leaf, test duration of 2 days (footnote +)
# [11] = 72 h, 100 ppm, contact, rice plant, 3 days
# [12] = 72 h, 100 ppm, residual, cotton leaf, 3 days
SMILES,mortality at 100 ppm [1] [%],mortality at 100 ppm (Myzus persicae (aphids)) [%],mortality at 100 ppm [6] [%],mortality at 100 ppm ([4]; 72 h) [%],mortality at 100 ppm ([5]; 72 h) [%],mortality at 100 ppm ([7]; 24 h) [%],mortality at 100 ppm ([3]; 72 h) [%],mortality at 100 ppm ([2]; 72 h) [%],further results
"CC1(C)C(/C=C(\F)C(F)(F)F)C1C(=O)OCc1c(F)c(F)c(CN=[N+]=[N-])c(F)c1F (mixture of isomers) [Product XXVIII, 4-(azidomethyl)-2,3,5,6-tetrafluorobenzyl (1RS, cis/trans)-3-(Z-2,3,3,3-tetrafluoroprop-1-en-1-yl)2,2-dimethylcyclopropanecarboxylate]",< 50,80 to 100,80 to 100,–,–,–,–,–,"mortality at 100 ppm [2, 9]: 80 to 100%; mortality at 100 ppm [3, 10]: 80 to 100%; mortality at 100 ppm ([4]; 48 h): 80 to 100%; mortality at 100 ppm ([5]; 48 h): 80 to 100%; mortality at 100 ppm ([7]; 72 h): 80 to 100%; % KNOCKDOWN OBSERVED 15 min ([8]; 250 ppm in kerosene, 1 cm3 sprayed onto 10 adult males, 15 min, tests 1 and 2 are repeats): 70%; % KNOCKDOWN OBSERVED 20 min ([8]; 250 ppm in kerosene, 1 cm3 sprayed onto 10 adult males, 20 min, tests 1 and 2 are repeats): 100%; KT₅₀ ([8]; 250 ppm spray): 6.4 min and 12.6 min; KT₉₀ ([8]; 250 ppm spray): 9.3 min and 18.3 min; mortality at 250 ppm ([8]; Blattella germanica, 48 h, 250 ppm spray, insects held at 25°C and 65% relative humidity for 48 hours, tests 1 and 2 are repeats, read-out: % MORTALITY 48 hrs): 100%"
"CC1(C)C(C=C(Cl)C(F)(F)F)C1C(=O)OCc1c(F)c(F)c(COC=O)c(F)c1F (racemic) [Product VIII, 4-(Formyloxymethyl)-2,3,5,6-tetrafluoromethyl (1RS, cis)-3-(Z-2-chloro-3,3,3-trifluoroprop-1-en-1-yl)-2,2-dimethylcyclopropanecarboxylate]",–,–,–,80 to 100,80 to 100,80 to 100,–,–,"grading of mortality, Tua ([1]; 100 ppm, 3 days, listed as VIII, 4320 min): A (A indicates 80-100% mortality); mortality at 100 ppm [2, 11]: 80 to 100%; mortality at 100 ppm [3, 12]: 80 to 100%"
"CC1(C)C(C=C(Cl)C(F)(F)F)C1C(=O)OCc1c(F)c(F)c(CCC#N)c(F)c1F (racemic) [Product XXI, 4-(2-cyanoethyl)-2,3,5,6-tetrafluorobenzyl (1RS, cis)-3-(Z-2-chloro-3,3,3-trifluoroprop-1-en-1-yl)-2,2-dimethylcyclopropanecarboxylate]",< 50,80 to 100,< 50,–,–,–,–,–,"mortality at 100 ppm [2, 9]: 80 to 100%; mortality at 100 ppm [3, 10]: 80 to 100%; mortality at 100 ppm ([4]; 48 h): < 50%; mortality at 100 ppm ([5]; 48 h): < 50%; mortality at 100 ppm ([7]; 72 h): < 50%; % MORTALITY 48 hrs ([8]; 250 ppm spray, insects held at 25°C and 65% relative humidity for 48 hours, tests 1 and 2 are repeats, 2880 min): 60% and 100%; KT₅₀ ([8]; 250 ppm spray): 4.2 min and 3.6 min; KT₉₀ ([8]; 250 ppm spray): 8.8 min and 8.2 min; pest or weed control at 250 ppm ([8]; Blattella germanica, 5 min, 250 ppm in kerosene, 1 cm3 sprayed onto 10 adult males, 5 min, tests 1 and 2 are repeats, read-out: % KNOCKDOWN OBSERVED 5 min): 60%; pest or weed control at 250 ppm ([8]; Blattella germanica, 10 min, 250 ppm in kerosene, 1 cm3 sprayed onto 10 adult males, 10 min, tests 1 and 2 are repeats, read-out: % KNOCKDOWN OBSERVED 10 min): 100%"
"CC1(C)[C@H](C(=O)OCc2c(F)c(F)c(CBr)c(F)c2F)[C@@H]1/C=C(\Cl)C(F)(F)F (relative stereo) [Product I, 4-(Bromomethyl)-2,3,5,6-tetrafluorobenzyl (1RS,cis)-3-(Z-2-chloro-3,3,3-trifluoroprop-1-en-1-yl)-2,2-dimethyl-cyclopropanecarboxylate]",< 50,–,–,–,80 to 100,< 50,50 to 79,–,–
"CC1(C)[C@H](C(=O)OCc2c(F)c(F)c(COS(C)(=O)=O)c(F)c2F)[C@@H]1/C=C(\Cl)C(F)(F)F (relative stereo) [Product IV, 4-(methanesulphonyloxymethyl)-2,3,5,6-tetrafluorobenzyl (1RS,cis)-3-(Z-2-chloro-3,3,3-trifluoroprop-1-en-1-yl)-2,2-dimethylcyclopropanecarboxylate]",80 to 100,80 to 100,80 to 100,80 to 100,< 50,< 50,80 to 100,80 to 100,–
"CC1(C)[C@H](C(=O)OCc2c(F)c(F)c(COC(=O)C(F)(F)F)c(F)c2F)[C@@H]1/C=C(\Cl)C(F)(F)F (relative stereo) [Product V, 4-(trifluoroacetoxymethyl)-2,3,5,6-tetrafluorobenzyl (1RS,cis)-3-(Z-2-chloro-3,3,3-trifluoroprop-1-en-1-yl)-2,2-dimethylcyclopropanecarboxylate]",80 to 100,80 to 100,80 to 100,80 to 100,80 to 100,80 to 100,80 to 100,80 to 100,–
"COC(=O)OCc1c(F)c(F)c(COC(=O)[C@@H]2[C@H](/C=C(\Cl)C(F)(F)F)C2(C)C)c(F)c1F (relative stereo) [Product VII, 4-(Methoxycarbonyloxymethyl)-2,3,5,6-tetrafluorobenzyl (1RS,cis)-3-(Z-2-chloro-3,3,3-trifluoroprop-1-en-1-yl)-2,2-dimethylcyclopropanecarboxylate]",80 to 100,80 to 100,80 to 100,80 to 100,80 to 100,< 50,80 to 100,80 to 100,–
"CC#CCOCc1c(F)c(F)c(COC(=O)[C@@H]2[C@H](/C=C(\Cl)C(F)(F)F)C2(C)C)c(F)c1F (relative stereo) [Product XIX, 4-[(But-2-yn-1-yl)oxymethyl]-2,3,5,6-tetrafluorobenzyl (1RS,cis)-3-(Z-2-chloro-3,3,3-trifluoroprop-1-en-1-yl)-2,2-dimethylcyclopropanecarboxylate]",50 to 79,80 to 100,80 to 100,80 to 100,80 to 100,50 to 79,80 to 100,80 to 100,–
"C#CCOCc1c(F)c(F)c(COC(=O)[C@@H]2[C@H](/C=C(\Cl)C(F)(F)F)C2(C)C)c(F)c1F (relative stereo) [Product XX, 4-[(Prop-2-yn-1-yl)oxymethyl]-2,3,5,6-tetrafluorobenzyl (1RS,cis)-3-(Z-2-chloro-3,3,3-trifluoroprop-1-en-1-yl)-2,2-dimethylcyclopropanecarboxylate]",80 to 100,80 to 100,80 to 100,80 to 100,80 to 100,80 to 100,80 to 100,80 to 100,–
"C#CC(C)OCc1c(F)c(F)c(COC(=O)C2C(C=C(Cl)C(F)(F)F)C2(C)C)c(F)c1F (stereo not drawn) [Product XVIII, (Rs)-4-[(l-methylprop-2-yn-1-yl)oxymethyl]-2,3,5,6-tetrafluorobenzyl (1RS,cis)-3-(Z-2-chloro-3,3,3-trifluoroprop-1-en-1-yl)-2,2-dimethylcyclopropanecarboxylate]",< 50,80 to 100,80 to 100,80 to 100,80 to 100,80 to 100,–,–,"mortality at 100 ppm [2, 11]: 80 to 100%; mortality at 100 ppm [3, 12]: 80 to 100%"
